Values of other authors, collected in patent publication US11980685B1, “Liquid pharmaceutical formulations of tafamidis” (TaP Pharmaceuticals, AG, priority 2022, dated 2024).
Values after ≈ are worked out from the molar mass of the structure shown. Read-outs that look alike come from different tables or passages of the source.

Key:
[1] = 20 mg in 3.0 mL, equilibrated 1 h, UHPLC

Solubility (pH 2.6, 0.02M Acetate-phosphate buffer) [µg/mL]	Solubility (pH 5.3, 0.02M Acetate-phosphate buffer) [µg/mL]	Solubility (pH 6.3, 0.02M Acetate-phosphate buffer) [µg/mL]	Solubility (pH 7.0, 0.02M Acetate-phosphate buffer) [µg/mL]	Solubility (pH 7.6, 0.02M Acetate-phosphate buffer as printed) [µg/mL]	Solubility (pH 7.8, 0.02M Acetate-phosphate buffer) [µg/mL]	Solubility (pH 8.0, 0.02M Acetate-phosphate buffer) [µg/mL]	Solubility classification per the BCS criteria (statement of the NDA 212161 applicant on Table F)	Concentration of tafamidis in saturated solution (solubility) ([1]; FaSSIF) [µg/mL]	Concentration of tafamidis in saturated solution (solubility) ([1]; FeSSIF) [µg/mL]	Concentration of tafamidis in saturated solution (solubility) ([1]; SGF) [µg/mL]	SMILES
<2	<2	2 (≈ 6.49 µM)	15.8 (≈ 51.3 µM)	17.5 (≈ 56.8 µM)	72.8 (≈ 236 µM)	140 (≈ 454 µM)	poorly soluble drug substance				O=C(O)c1ccc2nc(-c3cc(Cl)cc(Cl)c3)oc2c1 [Tafamidis, 2-(3,5-dichlorophenyl)-1,3-benzoxazole-6-carboxylic acid]
								9.0	0.6	1.5	O=C(O)c1ccc2nc(-c3cc(Cl)cc(Cl)c3)oc2c1 [′441 patent's tafamidis crystal form 1]
